Data published in a compilation of properties of binary mixtures (doi:10.1016/j.fluid.2022.113414).

Assay: xn = mol fraction of the nth substance listed
Conditions: 101.3 kPa

CC(=O)[O-].CN1CCCN2CCC[NH+]=C12 + O
viscosity [mPa·s]
Conditions	x1 = 0.103	x1 = 0.206	x1 = 0.301	x1 = 0.405	x1 = 0.494	x1 = 0.604
278.2 K	46	329	945	–	2689	3358
283.2 K	–	–	554	1023.1	–	1825.2
288.2 K	24.1	131.4	340	609	873	1046.1
293.2 K	18.1	87.9	217.7	–	533	629
298.2 K	13.9	61.2	–	244.9	–	396
303.2 K	10.9	43.9	–	164.9	224.5	–
308.2 K	8.77	–	–	114.8	153.9	176.1
313.2 K	7.19	24.72	–	82.4	–	123.6
318.2 K	5.94	19.23	–	60.6	–	89.4
323.2 K	4.99	15.23	30	45.8	59.3	–
328.2 K	4.24	12.3	23.57	35.39	45.37	50.43
333.2 K	3.65	–	18.81	27.89	35.43	39.17
338.2 K	3.15	8.44	15.29	22.37	–	31.03
343.2 K	–	7.12	12.65	18.24	22.81	25.01
348.2 K	2.45	6.08	10.59	15.11	18.74	20.47
353.2 K	2.19	5.25	–	12.66	15.61	16.99
358.2 K	–	–	7.69	10.74	13.17	–
363.2 K	1.78	4	6.66	9.21	11.24	–
368.2 K	–	3.54	5.83	7.98	9.68	–
373.2 K	–	3.17	–	6.97	8.42	–
